According to US20230257396A1, “MACROCYCLES AND THEIR USE” (BLOSSOMHILL THERAPEUTICS, INC., priority 2020, published 2023):

What was measured:
Assay in all cases: KINOMEscan kinase binding assay (Eurofins/DiscoveRx), % Ctrl
[1] = target: T1, kinases (Homo sapiens, UniProt P00519, E255K); details: 1 μM; ABL1(E255K)-phosphorylated
T1 construct: purchased Eurofins/DiscoveRx; host or cells: E. coli BL21-derived host (T7 phage display) for most kinases; HEK-293 for the rest
Procedure, shortened: (§1)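 Read-out is qPCR of kinase eluted from ligand-coated streptavidin beads after 1 h room-temperature competition with test compound. Values are % Ctrl at the tested concentration, lower meaning tighter binding.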

[2] = target: T2, kinases (Homo sapiens, UniProt P07949); details: 1 μM; RET
T2 construct: purchased Eurofins/DiscoveRx; host or cells: E. coli BL21-derived host (T7 phage display) for most kinases; HEK-293 for the rest
Procedure, shortened: as §1

[3] = target: T3, kinases (Homo sapiens, UniProt P10721, V559D); details: 1 μM; KIT(V559D)
T3 construct: purchased Eurofins/DiscoveRx; host or cells: E. coli BL21-derived host (T7 phage display) for most kinases; HEK-293 for the rest
Procedure, shortened: as §1

[4] = target: T4, kinases (Homo sapiens, UniProt P07949, M918T); details: 1 μM; RET(M918T)
T4 construct: purchased Eurofins/DiscoveRx; host or cells: E. coli BL21-derived host (T7 phage display) for most kinases; HEK-293 for the rest
Procedure, shortened: as §1

[5] = target: T5, kinases (Homo sapiens, UniProt P00533, G719S); details: 1 μM; EGFR(G719S)
T5 construct: purchased Eurofins/DiscoveRx; host or cells: E. coli BL21-derived host (T7 phage display) for most kinases; HEK-293 for the rest
Procedure, shortened: as §1

[6] = target: T6, kinases (Homo sapiens, UniProt P09619); details: 1 μM; PDGFRB
T6 construct: purchased Eurofins/DiscoveRx; host or cells: E. coli BL21-derived host (T7 phage display) for most kinases; HEK-293 for the rest
Procedure, shortened: as §1

[7] = target: T7, kinases (Homo sapiens, UniProt P00519, H396P); details: 1 μM
T7 construct: purchased Eurofins/DiscoveRx; host or cells: E. coli BL21-derived host (T7 phage display) for most kinases; HEK-293 for the rest
Procedure, shortened: as §1

[8] = target: T8, kinases (Homo sapiens, UniProt P00533, DEL752-759); details: 1 μM; EGFR(S752-I759del)
T8 construct: purchased Eurofins/DiscoveRx; host or cells: E. coli BL21-derived host (T7 phage display) for most kinases; HEK-293 for the rest
Procedure, shortened: as §1

[9] = target: T9, kinases (Homo sapiens, UniProt P16234); details: 1 μM; PDGFRA
T9 construct: purchased Eurofins/DiscoveRx; host or cells: E. coli BL21-derived host (T7 phage display) for most kinases; HEK-293 for the rest
Procedure, shortened: as §1

[10] = target: T10, kinases (Homo sapiens, UniProt P00519, T315I); details: 1 μM
T10 construct: purchased Eurofins/DiscoveRx; host or cells: E. coli BL21-derived host (T7 phage display) for most kinases; HEK-293 for the rest
Procedure, shortened: as §1

[11] = target: T11, kinases (Homo sapiens, UniProt P10721, L576P); details: 1 μM; KIT(L576P)
T11 construct: purchased Eurofins/DiscoveRx; host or cells: E. coli BL21-derived host (T7 phage display) for most kinases; HEK-293 for the rest
Procedure, shortened: as §1

[12] = target: T12, kinases (Homo sapiens, UniProt P10721, D816H); details: 1 μM; KIT(D816H)
T12 construct: purchased Eurofins/DiscoveRx; host or cells: E. coli BL21-derived host (T7 phage display) for most kinases; HEK-293 for the rest
Procedure, shortened: as §1

[13] = target: T13, kinases (Homo sapiens, UniProt P00519, F317I); details: 1 μM
T13 construct: purchased Eurofins/DiscoveRx; host or cells: E. coli BL21-derived host (T7 phage display) for most kinases; HEK-293 for the rest
Procedure, shortened: as §1

[14] = target: T14, kinases (Homo sapiens, UniProt P00533, L858R); details: 1 μM; EGFR(L858R)
T14 construct: purchased Eurofins/DiscoveRx; host or cells: E. coli BL21-derived host (T7 phage display) for most kinases; HEK-293 for the rest
Procedure, shortened: as §1

[15] = target: T15, kinases (Homo sapiens, UniProt P36888, D835Y); details: 1 μM; FLT3(D835Y)
T15 construct: purchased Eurofins/DiscoveRx; host or cells: E. coli BL21-derived host (T7 phage display) for most kinases; HEK-293 for the rest
T15 sequence (P36888 27-993 D835Y): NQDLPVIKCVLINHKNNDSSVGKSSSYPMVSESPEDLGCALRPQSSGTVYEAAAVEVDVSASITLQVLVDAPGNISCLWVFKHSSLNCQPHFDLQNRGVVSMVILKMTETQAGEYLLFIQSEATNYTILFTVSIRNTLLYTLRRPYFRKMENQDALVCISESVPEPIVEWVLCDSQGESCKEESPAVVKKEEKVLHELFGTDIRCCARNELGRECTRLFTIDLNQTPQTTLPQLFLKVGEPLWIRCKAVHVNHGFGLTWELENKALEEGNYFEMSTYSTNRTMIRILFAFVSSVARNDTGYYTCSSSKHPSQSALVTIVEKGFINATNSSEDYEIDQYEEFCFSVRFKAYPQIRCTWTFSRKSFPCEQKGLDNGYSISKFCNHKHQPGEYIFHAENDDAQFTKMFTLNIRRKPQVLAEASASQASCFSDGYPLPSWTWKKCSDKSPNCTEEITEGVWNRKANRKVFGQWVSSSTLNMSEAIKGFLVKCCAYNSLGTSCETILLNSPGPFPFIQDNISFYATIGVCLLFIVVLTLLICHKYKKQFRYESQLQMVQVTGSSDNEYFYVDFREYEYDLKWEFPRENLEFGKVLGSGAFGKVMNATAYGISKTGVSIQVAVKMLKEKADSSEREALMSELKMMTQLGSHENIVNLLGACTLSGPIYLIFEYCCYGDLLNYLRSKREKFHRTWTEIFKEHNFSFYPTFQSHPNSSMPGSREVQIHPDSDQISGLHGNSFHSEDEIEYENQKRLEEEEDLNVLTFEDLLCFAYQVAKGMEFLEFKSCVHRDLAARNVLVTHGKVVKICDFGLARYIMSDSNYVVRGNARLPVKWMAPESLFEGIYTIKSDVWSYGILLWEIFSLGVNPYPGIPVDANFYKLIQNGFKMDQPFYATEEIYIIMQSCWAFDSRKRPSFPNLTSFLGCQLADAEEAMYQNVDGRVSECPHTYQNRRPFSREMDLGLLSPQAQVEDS
Procedure, shortened: as §1

T6 sequence (P09619 33-1106): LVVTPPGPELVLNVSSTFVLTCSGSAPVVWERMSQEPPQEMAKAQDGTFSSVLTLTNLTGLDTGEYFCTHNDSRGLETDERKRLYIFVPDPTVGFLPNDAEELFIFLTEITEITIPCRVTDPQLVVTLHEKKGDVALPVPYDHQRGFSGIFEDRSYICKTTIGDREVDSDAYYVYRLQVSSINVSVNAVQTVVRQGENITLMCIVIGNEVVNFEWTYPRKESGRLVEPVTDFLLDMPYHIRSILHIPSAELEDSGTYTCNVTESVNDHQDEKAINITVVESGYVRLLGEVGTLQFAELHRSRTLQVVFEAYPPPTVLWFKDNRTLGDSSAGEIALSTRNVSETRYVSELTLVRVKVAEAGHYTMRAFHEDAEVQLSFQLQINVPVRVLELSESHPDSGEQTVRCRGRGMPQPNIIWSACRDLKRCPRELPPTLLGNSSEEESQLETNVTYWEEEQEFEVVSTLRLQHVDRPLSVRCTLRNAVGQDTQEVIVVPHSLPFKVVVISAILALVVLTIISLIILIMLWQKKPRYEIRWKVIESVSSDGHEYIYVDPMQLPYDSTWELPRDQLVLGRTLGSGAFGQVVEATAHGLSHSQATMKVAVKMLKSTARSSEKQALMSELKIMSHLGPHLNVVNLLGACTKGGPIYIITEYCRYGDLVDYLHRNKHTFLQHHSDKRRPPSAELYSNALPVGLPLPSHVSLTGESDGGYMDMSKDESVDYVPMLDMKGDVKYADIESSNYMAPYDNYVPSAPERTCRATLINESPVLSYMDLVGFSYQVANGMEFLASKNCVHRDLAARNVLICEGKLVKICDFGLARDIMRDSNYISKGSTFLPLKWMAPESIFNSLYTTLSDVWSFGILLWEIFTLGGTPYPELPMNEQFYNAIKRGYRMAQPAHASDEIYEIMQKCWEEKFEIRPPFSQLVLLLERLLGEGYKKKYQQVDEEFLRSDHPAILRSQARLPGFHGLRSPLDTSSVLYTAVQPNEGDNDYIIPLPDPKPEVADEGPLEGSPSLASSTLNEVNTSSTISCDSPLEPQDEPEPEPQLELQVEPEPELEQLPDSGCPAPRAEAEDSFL
T4 sequence (P07949 29-1114 M918T): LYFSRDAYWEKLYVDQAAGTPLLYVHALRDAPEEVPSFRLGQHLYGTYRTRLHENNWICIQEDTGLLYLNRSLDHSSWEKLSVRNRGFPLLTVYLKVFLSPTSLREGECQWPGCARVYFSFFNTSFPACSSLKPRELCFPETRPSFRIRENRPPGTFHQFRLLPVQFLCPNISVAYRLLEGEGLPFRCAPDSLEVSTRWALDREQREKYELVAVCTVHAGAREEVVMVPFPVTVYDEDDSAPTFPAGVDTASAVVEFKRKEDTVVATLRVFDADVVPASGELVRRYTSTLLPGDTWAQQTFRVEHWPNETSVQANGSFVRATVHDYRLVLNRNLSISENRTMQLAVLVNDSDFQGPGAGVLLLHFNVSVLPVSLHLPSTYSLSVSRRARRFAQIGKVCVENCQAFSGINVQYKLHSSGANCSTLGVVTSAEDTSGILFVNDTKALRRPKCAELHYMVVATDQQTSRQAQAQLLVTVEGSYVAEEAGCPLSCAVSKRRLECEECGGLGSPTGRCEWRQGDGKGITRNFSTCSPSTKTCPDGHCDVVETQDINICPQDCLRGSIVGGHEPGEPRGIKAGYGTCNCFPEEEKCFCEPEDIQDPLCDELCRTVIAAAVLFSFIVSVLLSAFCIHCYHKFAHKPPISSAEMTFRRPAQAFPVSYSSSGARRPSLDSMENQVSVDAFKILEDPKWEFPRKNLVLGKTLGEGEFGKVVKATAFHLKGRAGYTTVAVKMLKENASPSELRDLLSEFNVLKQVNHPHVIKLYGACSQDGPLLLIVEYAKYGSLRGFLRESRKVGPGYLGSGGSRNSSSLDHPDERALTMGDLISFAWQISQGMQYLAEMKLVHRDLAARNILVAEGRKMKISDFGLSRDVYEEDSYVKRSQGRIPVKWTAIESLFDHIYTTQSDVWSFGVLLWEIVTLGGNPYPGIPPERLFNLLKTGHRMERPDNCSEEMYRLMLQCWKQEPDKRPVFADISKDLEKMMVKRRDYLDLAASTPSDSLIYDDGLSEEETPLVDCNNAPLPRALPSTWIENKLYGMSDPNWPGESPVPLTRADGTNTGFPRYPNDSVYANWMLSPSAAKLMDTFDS
T9 sequence (P16234 24-1089): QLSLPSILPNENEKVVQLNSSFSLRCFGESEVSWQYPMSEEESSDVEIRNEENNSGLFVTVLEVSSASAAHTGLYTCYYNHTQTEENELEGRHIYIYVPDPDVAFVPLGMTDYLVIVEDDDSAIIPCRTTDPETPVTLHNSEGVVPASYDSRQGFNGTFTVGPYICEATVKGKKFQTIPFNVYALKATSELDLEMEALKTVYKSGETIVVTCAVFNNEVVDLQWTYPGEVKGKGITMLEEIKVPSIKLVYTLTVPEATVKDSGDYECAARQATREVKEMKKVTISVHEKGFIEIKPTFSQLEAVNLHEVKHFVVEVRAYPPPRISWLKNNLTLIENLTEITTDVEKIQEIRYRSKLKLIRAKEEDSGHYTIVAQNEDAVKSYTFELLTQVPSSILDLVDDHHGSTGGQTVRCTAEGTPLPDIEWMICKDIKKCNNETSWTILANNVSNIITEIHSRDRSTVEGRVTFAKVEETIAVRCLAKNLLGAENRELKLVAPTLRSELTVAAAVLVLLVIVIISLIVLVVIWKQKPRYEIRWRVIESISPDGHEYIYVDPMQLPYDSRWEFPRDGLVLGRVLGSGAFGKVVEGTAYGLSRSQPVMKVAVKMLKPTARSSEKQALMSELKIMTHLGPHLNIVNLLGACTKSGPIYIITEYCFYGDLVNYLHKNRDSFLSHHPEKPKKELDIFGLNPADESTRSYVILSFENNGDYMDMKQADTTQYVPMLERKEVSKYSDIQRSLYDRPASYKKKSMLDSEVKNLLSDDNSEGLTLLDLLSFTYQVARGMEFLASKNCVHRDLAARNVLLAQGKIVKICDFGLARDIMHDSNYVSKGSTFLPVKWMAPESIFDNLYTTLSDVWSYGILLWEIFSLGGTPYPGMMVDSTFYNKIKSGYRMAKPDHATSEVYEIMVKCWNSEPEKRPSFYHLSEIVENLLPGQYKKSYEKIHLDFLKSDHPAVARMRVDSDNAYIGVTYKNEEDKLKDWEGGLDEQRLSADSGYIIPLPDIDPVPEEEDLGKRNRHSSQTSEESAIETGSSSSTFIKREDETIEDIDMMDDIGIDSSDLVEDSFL
T3 sequence (P10721 26-976 V559D): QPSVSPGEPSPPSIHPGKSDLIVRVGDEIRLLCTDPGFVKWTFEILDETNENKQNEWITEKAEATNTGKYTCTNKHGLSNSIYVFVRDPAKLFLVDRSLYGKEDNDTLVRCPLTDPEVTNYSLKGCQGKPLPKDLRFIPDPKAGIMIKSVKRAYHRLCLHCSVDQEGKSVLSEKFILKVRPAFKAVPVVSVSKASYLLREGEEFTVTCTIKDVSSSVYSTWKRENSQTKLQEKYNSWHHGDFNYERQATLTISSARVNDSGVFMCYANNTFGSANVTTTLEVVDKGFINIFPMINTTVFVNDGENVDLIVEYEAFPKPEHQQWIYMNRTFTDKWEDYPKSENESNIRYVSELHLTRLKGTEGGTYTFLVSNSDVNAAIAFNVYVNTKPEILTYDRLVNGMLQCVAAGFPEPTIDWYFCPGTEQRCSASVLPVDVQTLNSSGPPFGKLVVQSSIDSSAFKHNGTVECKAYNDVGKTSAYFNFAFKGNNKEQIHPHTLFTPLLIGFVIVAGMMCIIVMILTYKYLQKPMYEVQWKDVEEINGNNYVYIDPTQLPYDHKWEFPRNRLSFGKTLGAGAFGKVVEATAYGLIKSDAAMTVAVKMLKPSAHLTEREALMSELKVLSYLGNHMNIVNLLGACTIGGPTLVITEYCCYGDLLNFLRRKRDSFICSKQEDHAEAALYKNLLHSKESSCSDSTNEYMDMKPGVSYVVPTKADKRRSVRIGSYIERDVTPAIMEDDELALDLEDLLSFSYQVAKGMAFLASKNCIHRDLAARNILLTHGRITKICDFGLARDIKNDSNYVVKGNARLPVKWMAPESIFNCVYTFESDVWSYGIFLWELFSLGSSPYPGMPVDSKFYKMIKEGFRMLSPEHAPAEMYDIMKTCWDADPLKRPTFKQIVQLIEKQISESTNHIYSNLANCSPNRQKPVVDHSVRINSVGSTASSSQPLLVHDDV
T12 sequence (P10721 26-976 D816H): as the sequence (P10721 26-976 V559D) above, with D534V, D791H counted along it
T2 sequence (P07949 29-1114): as the sequence (P07949 29-1114 M918T) above, with T890M counted along it
T11 sequence (P10721 26-976 L576P): as the sequence (P10721 26-976 V559D) above, with D534V, L551P counted along it

Structure (SMILES)	% Ctrl, ABL1(E255K)-phosphorylated [1] [% Ctrl]	% Ctrl, RET [2] [% Ctrl]	% Ctrl, KIT(V559D) [3] [% Ctrl]	% Ctrl, RET(M918T) [4] [% Ctrl]	% Ctrl, EGFR(G719S) [5] [% Ctrl]	% Ctrl, PDGFRB [6] [% Ctrl]	% Ctrl, ABL1(H396P)-nonphosphorylated [7] [% Ctrl]	% Ctrl, ABL1(H396P)-phosphorylated [7] [% Ctrl]	% Ctrl, EGFR(S752-I759del) [8] [% Ctrl]	% Ctrl, PDGFRA [9] [% Ctrl]	% Ctrl, ABL1(T315I)-nonphosphorylated [10] [% Ctrl]	% Ctrl, ABL1(T315I)-phosphorylated [10] [% Ctrl]	% Ctrl, KIT(L576P) [11] [% Ctrl]	% Ctrl, KIT(D816H) [12] [% Ctrl]	% Ctrl, ABL1(F317I)-nonphosphorylated [13] [% Ctrl]	% Ctrl, ABL1(F317I)-phosphorylated [13] [% Ctrl]	% Ctrl, EGFR(L858R) [14] [% Ctrl]	% Ctrl, FLT3(D835Y) [15] [% Ctrl]
Cc1cc2c([nH]1)/C=C1\C(=O)Nc3cc(Cl)c(cc31)OCCOCCN(C)C2=O [Ex. 131, [16a(17)Z]-19-chloro-2,5-dimethyl-6,7,9,10-tetrahydro-1H-12,14-(ethanediylidene)dipyrrolo[3,2-i:3′,4′-l][1,4,7]dioxazacyclopentadecine-4,16(5H,15H)-dione]	0	0	0.15	0	80	1.4	0	0	70	7.7	0	1.1	0	6.2	0	3.5	56	2.3
Cc1cc2c([nH]1)/C=C1\C(=O)Nc3cnc(cc31)-c1cnn(C)c1COCCNC2=O [Ex.123, [3a(4)Z]-6,14-dimethyl-10,11,13,14-tetrahydro-2H-17,1-(azenometheno)pyrazolo[4,3-m]dipyrrolo[3,2-f:3′,4′-i][1,4]oxazacyclopentadecine-3,8(5H,9H)-dione]	92	91	99	89	94	94	100	100	93	100	100	100	97	100	100	100	94	72
CNC(=O)[C@H]1CN(C)C(=O)c2cc(C)[nH]c2/C=C2\C(=O)Nc3cc(Cl)c(cc32)OCCO1 [Ex. 135, [7R,16a(17)Z]-19-chloro-N,2,5-trimethyl-4,16-dioxo-4,5,6,7,9,10,15,16-octahydro-1H-12,14-(ethanediylidene)dipyrrolo[3,2-i:3′,4′-l][1,4,7]dioxazacyclopentadecine-7-carboxamide]	56	33	45	36	92	80	29	54	92	79	94	72	8.5	80	96	84	93	13
Cc1cc2c([nH]1)/C=C1\C(=O)Nc3ccc(cc31)-c1c(noc1C)COCCN(C)C2=O [Ex. 128, [3a(4)Z]-6,9,16-trimethyl-1,11-dihydro-2H,13H-1,17-(ethanediylidene)[1,4]oxazolo[4,3-m]dipyrrolo[3,2-f:3′,4′-i][1,4]oxazacyclopentadecine-3,8(5H,9H)-dione]	25	83	93	93	97	85	28	51	98	89	20	4.2	100	87	100	55	88	22
Cc1cc2c([nH]1)/C=C1\C(=O)Nc3ccc(cc31)-c1ccnn1CCNCCNC2=O [Ex. 43, [19a(20)Z]-2-methyl-5,6,7,8,9,10-hexahydro-15,17-(ethanediylidene)pyrazolo[1,5-g]dipyrrolo[3,4-k:2′,3′-n][1,4,7]triazacyclohexadecine-4,19(1H,18H)-dione]	84	85	100	95	92	98	64	89	91	80	68	75	100	65	68	94	97	86
Cc1cc2c([nH]1)/C=C1\C(=O)Nc3ccc(cc31)O[C@@H](C)COCCN(C)C2=O [Ex. 92, [10S,16a(17)Z]-2,5,10-trimethyl-6,7,9,10-tetrahydro-1H-12,14-(ethanediylidene)dipyrrolo[3,2-i:3′,4′-l][1,4,7]dioxazacyclopentadecine-4,16(5H,15H)-dione]	22	63	91	59	98	71	0.3	46	90	95	12	66	87	87	22	89	98	28
